Reference: patent US5229381A, “Substituted azetidinones as anti-inflammatory and antidegenerative agents” (Merck & Co., Inc., priority 1991, dated 1993)

molecular target: T1, human polymorphonuclear leukocyte elastase (Homo sapiens, UniProt P08246); experiment: Inhibition of human polymorphonuclear leukocyte (granulocyte) elastase via hydrolysis of Boc-AAPAN or Boc-AAPVN; assay type: biochemical; settings: Table I; 2 min after time zero; crude PMN extract, pH 7.5
T1 construct: Crude extract of human polymorphonuclear leukocytes (PMN) containing elastase activity; endogenous in cells; host or cells: human polymorphonuclear leukocytes (crude extract)
T1 sequence (P08246 30-247 limits assumed): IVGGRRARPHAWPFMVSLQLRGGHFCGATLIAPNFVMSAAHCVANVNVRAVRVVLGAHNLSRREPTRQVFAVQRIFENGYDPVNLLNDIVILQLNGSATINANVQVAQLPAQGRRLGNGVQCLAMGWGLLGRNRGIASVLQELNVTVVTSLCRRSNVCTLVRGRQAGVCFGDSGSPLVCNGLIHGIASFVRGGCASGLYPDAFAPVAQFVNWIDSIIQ
Experimental: Enzyme Assays for the Inhibition of Human Polymorphonuclear Leukocyte Elastase Via Hydrolysis of N-t-Boc-alanyl-alanyl-prolylalanine-p-nitroanilide (Boc-AAPAN) or N-t-Boc-alanyl-prolylvaline-p-nitroanilide (Boc-AAPVN) Reagent:
0.05M TES (N-tris[hydroxymethyl]methyl-2-amino-ethanesulfonic acid) Buffer, pH 7.5.
0.2 mM Boc-AAPAN or Boc-AAPVN.
To prepare substrate, the solid was first dissolved in 10.0 ml DMSO. Buffer at pH 7.5 was then added to a final volume of 100 ml.
Crude extract of human polymorphonuclear leukocytes (PMN) containing elastase activity.
Inhibitors (azetidinones) to be tested dissolved in DMSO just before use.
To 1.0 ml of 0.2 mM Boc-AAPAN in a cuvette, 0.01-0.1 ml of DMSO with or without inhibitor was added. After mixing, a measurement was taken at 410 mμ to detect any spontaneous hydrolysis due to presence of test compound. 0.05 Milliliters of PMN extract was then added and the ΔOD/min at 410 mμ was measured and recorded. Beckman model 35 spectrophotometer was used.
Results were also expressed as Ki, the micromolar concentration of the inhibitor (μM) giving 50% of the control enzyme activity; or as ^k obs/I which is the second order rate constant in per mole per second for inactivation of the enzyme.
The elastase activity in the crude PMN extract may vary from one preparation to another. A control of each new batch is run, and the volume added in the assay procedure is adjusted according to activity.

ID50, effective dosage for 50% inhibition of the enzyme activity two minutes after time zero [µg/mL]	SMILES
2000	COC1C(=O)N(C(C)=O)C1C(=O)OCc1ccccc1 (stereo not shown) [Table I: H; CH3 O; COOCH2 C6 H5; COCH3]

same assay, conditions: Table I; read-out: Ki, concentration of the inhibitor giving 50% of the control enzyme activity

SMILES	Ki [nM]
CCC1C(=O)N(C(C)=O)C1OC(=O)CCC(=O)O (stereo not shown)	2000
CC[C@H]1C(=O)N(C(C)=O)[C@H]1OC(=O)c1ccccc1 (relative stereo) [Table I: H; C2 H5 (cis); OCOPh; COCH3]	210
CC[C@H]1C(=O)N(C(C)=O)[C@@H]1OC(=O)c1ccccc1 (relative stereo) [Table I: H; C2 H5 (trans); OCOPh; COCH3]	190
CC[C@H]1C(=O)N(S(=O)(=O)c2ccc(C)cc2)[C@H]1C(=O)N1CCCC1 (relative stereo)	27700

same assay, conditions: Table IV, (per mole per second)

kobs/I, second order rate constant of inactivation of the enzyme [M⁻¹ s⁻¹]	SMILES
4324	CCCC1(CCC)C(=O)N(C(=O)NC(C)c2ccccc2)C1Oc1ccc(C(=O)O)cc1 (single isomer, unassigned) [Table IV: C3 H7; C3 H7; O-(4-COOHPh); drawing 47 (higher Rf isomer)]

same assay, conditions: pH 7.5, Table I; read-out: kobs/I, second order rate constant of inactivation of the enzyme

kinact/KI [M⁻¹ s⁻¹]	SMILES
796	CCOC(=O)N1C(=O)[C@H](CC)[C@@H]1OCC(=O)O (relative stereo)

same assay, conditions: pH 7.5, Table II, (per mole per second); read-out: kobs/I, second order rate constant of inactivation of the enzyme

kinact/KI [M⁻¹ s⁻¹]	SMILES
14100	CCC1(CC)C(=O)N(C(=O)NC(C)c2cccc3ccccc23)C1Oc1ccc(C(=O)O)cc1 (stereo not shown)
4200	CCC1(CC)C(=O)N(C(=O)NCCCCC(O)c2ccccc2)C1Oc1ccc(C(=O)O)cc1 (stereo not shown)
13200	CCC1(CC)C(=O)N(C(=O)NCc2cc3ccccc3o2)C1Oc1ccc(C(=O)O)cc1 (stereo not shown)
3960	CCC1(CC)C(=O)N(C(=O)NCc2ccc(C)cc2)C1Oc1ccc(C(=O)O)cc1 (stereo not shown)
54000	CCCC1(CC)C(=O)N(C(=O)NC(CC)c2ccccc2)C1Oc1ccc(CC(=O)O)cc1 (stereo not shown)
900	CCC1C(=O)N(C(=O)NCc2ccccc2)C1c1ccc(C(=O)O)cc1 (stereo not shown) [Table II: C2 H5; H; Ph-4-COOH; CH2 Ph]
17000	CCC1(COC)C(=O)N(C(=O)NCc2ccc3c(c2)OCO3)C1Oc1ccc(C(=O)O)cc1 (stereo not shown)
6850	CCC1(CC)C(=O)N(C(=O)NCc2ccccc2)C1Oc1ccc([N+](=O)[O-])cc1 (stereo not shown)
4540	CCC1(CC)C(=O)N(C(=O)NCCCc2ccccc2)C1Oc1ccc(C(=O)O)cc1 (stereo not shown)
2540	CCC1(CC)C(=O)N(C(=O)NCc2ccccc2)C1Oc1ccc(CC(N)C(=O)O)cc1 (stereo not shown) [Table II: C2 H5; C2 H5; drawing 36; CH2 Ph]
5160	CCC1(CC)C(=O)N(C(=O)NCc2ccc(OC)cc2)C1Oc1ccc(C(=O)O)cc1 (stereo not shown)
3450	CCC1(CC)C(=O)N(C(=O)NCCCCOc2ccccc2)C1Oc1ccc(C(=O)O)cc1 (stereo not shown)
1760	CCC1(CC)C(=O)N(C(=O)NCc2ccccc2)C1Oc1cccc(C(=O)O)c1 (stereo not shown)
200	CCC1(CC)C(=O)N(C(=O)NCc2ccccc2)C1n1ccnc1 (stereo not shown)
37000	CCC1(CC)C(=O)N(C(=O)NCc2ccc(-c3ccccc3)cc2)C1Oc1ccc(C(=O)O)cc1 (stereo not shown)
12000	CCC1(CC)C(=O)N(C(=O)NCc2ccc(Oc3ccccc3)cc2)C1Oc1ccc(C(=O)O)cc1 (stereo not shown)
2550	CCC1(C)C(=O)N(C(=O)NCC(C)c2ccccc2)C1Oc1ccc(C(=O)O)cc1 (stereo not shown)
3180	CCC1(CC)C(=O)N(C(=O)NCc2ccccc2)C1Oc1ccc(CC(=O)O)cc1 (stereo not shown)

same assay, conditions: pH 7.5, Table III, (per mole per second); read-out: kobs/I, second order rate constant of inactivation of the enzyme

kinact/KI [M⁻¹ s⁻¹]	SMILES
62900	CCC1(CC)C(=O)N(C(=O)NCc2ccc3c(c2)CCCC3)C1Oc1ccc(C(=O)O)cc1 (stereo not shown)
357	CCC1(CC)C(=O)N(C(=O)NCc2ccccc2)C1n1ccccc1=O (stereo not shown) [Table III: [2H-1-pyridonyl]; CH2 Ph]
13100	CCC1(CC)C(=O)N(C(=O)NCc2ccc(OC)c(C)c2)C1Oc1ccc(C(=O)O)cc1 (stereo not shown)
6930	CCC1(CC)C(=O)N(C(=O)NCc2cccc(C)c2)C1Oc1ccc(C(=O)O)cc1 (stereo not shown) [Table III: O-(4-COOHPh); CH2 Ph(3-CH3)]
17600	CCC1(CC)C(=O)N(C(=O)NCc2ccc(C)c(C)c2)C1Oc1ccc(C(O)C(=O)O)cc1 (stereo not shown)
18800	CCC1(CC)C(=O)N(C(=O)NCc2ccc(C(C)C)cc2)C1Oc1ccc(C(=O)O)cc1 (stereo not shown) [Table III: O-(4-COOHPh); CH2 Ph(4-i-Pr)]
461	CCC1(CC)C(=O)N(C(=O)NCc2ccc(-c3ccccc3)cc2)C1n1ccnc1 (stereo not shown) [Table III: 1-imidazole; CH2 Ph-4-Ph]
9250	CCC1(CC)C(=O)N(C(=O)NCc2ccc(C)cc2)C1Oc1ccc(C(=O)O)c(O)c1 (stereo not shown)

same assay, conditions: pH 7.5, Table IV, (per mole per second); read-out: kobs/I, second order rate constant of inactivation of the enzyme

kinact/KI [M⁻¹ s⁻¹]	SMILES
4380	CCC1(C)C(=O)N(C(=O)N2CCc3ccccc3C2)C1Oc1ccc(C(=O)O)cc1 (stereo not shown)

same assay, conditions: pH 7.5, Table V, (per mole per second); read-out: kobs/I, second order rate constant of inactivation of the enzyme

kinact/KI [M⁻¹ s⁻¹]	SMILES
92000	CC[C@@H](NC(=O)N1C(=O)C(CC)(CC)[C@@H]1Oc1ccc(C(=O)O)cc1)c1ccccc1 [Table V: 4-COOH; Et; H]
120000	CCC[C@@H](NC(=O)N1C(=O)C(CC)(CC)[C@@H]1Oc1ccc(C(=O)O)cc1)c1ccccc1 [Table V: 4-COOH; nPr; H]

same assay, conditions: pH 7.5, Table VI, (per mole per second); read-out: kobs/I, second order rate constant of inactivation of the enzyme

kinact/KI [M⁻¹ s⁻¹]	SMILES
621000	CCC[C@@H](NC(=O)N1C(=O)C(CC)(CC)[C@@H]1Oc1ccc(C(=O)O)c(Cl)c1)c1ccc(C)cc1 [Table VI: 3-Cl,4-COOH; nPr; 4-Me, (4S)-3,3-Diethyl-1-[(R)-α-n-propyl-(4-methyl)benzylaminocarbonyl]-4-[(4-carboxy-3-chloro)phenoxy]-azetidin-2-one]
125000	CC[C@@H](NC(=O)N1C(=O)C(CC)(CC)[C@@H]1Oc1ccc(C(=O)O)c(O)c1)c1ccccc1 [Table VI: 3-OH-4-COOH; Et; H]
605000	C=CC[C@@H](NC(=O)N1C(=O)C(CC)(CC)[C@@H]1Oc1ccc(CC(=O)O)cc1)c1ccc2c(c1)OCO2 [(4S)-3,3-diethyl-1-[(R)-α-allyl-(3,4-methylenedioxy)-benzylaminocarbonyl]-4-[(4-carboxymethyl)phenoxy]azetidin-2-one]
867000	CCC[C@@H](NC(=O)N1C(=O)C(CC)(CC)[C@@H]1Oc1ccc(CC(=O)O)cc1)c1ccc2c(c1)OCO2 [(4S)-3,3-diethyl-1-[(R)-α-n-propyl-(3,4-methylenedioxy)-benzylaminocarbonyl]-4[(4-carboxymethyl)-phenoxy]azetidin-2-one]
37100	CCC1(CC)C(=O)N(C(=O)N[C@H](C)c2ccccc2)[C@H]1Oc1ccc(C(=O)CCC(=O)O)cc1 [Table VI: 4-CO(CH2)2COOH; Me; H]
589000	CCC[C@@H](NC(=O)N1C(=O)C(CC)(CC)[C@@H]1Oc1ccc(CC(=O)O)c(Cl)c1)c1ccc(C)cc1 [Table VI: 3-Cl,4-CH2 COOH; nPr; 4-Me, (4S)-3,3-Diethyl-1-[(R)-α-n-propyl-(4-methyl)benzylaminocarbonyl]-4-[(4-carboxymethyl-3-chloro)phenoxy]azetidin-2-one]
848000	CCC[C@@H](NC(=O)N1C(=O)C(CC)(CC)[C@@H]1Oc1ccc(CC(=O)O)cc1)c1ccc2occc2c1 [Table VI: 4-Ch2(OOH); nPr; 3,4(-CHCHO), (4S)-3,3-Diethyl-1-[[(R)-1-(benzofuran-5-yl)butylamino]carbonyl]-4-[4-(carboxymethyl)phenoxy]azetidin-2-one]
188000	CCC[C@@H](NC(=O)N1C(=O)C(CC)(CC)[C@@H]1Oc1ccc(CC(=O)O)cc1)c1ccccc1 [Table VI: 4-CH2 COOH; nPr; H, (4S)-3,3-diethyl-1-[(R)-α-n-propylbenzylamino-carbonyl]-4-[(4-carboxymethyl)phenoxy]azetidin-2-one]
4020	CCC1(CC)C(=O)N(C(=O)N[C@H](C)c2ccccc2)[C@H]1Oc1ccc(C(=O)O)cc1 [Table VI: 4-COOH; Me; H]
5880	CCC1(CC)C(=O)N(C(=O)N[C@H](C)c2ccccc2)[C@H]1Oc1cccc(CC(=O)O)c1 [Table VI: 3-CH2 COOH; Me; H]
9480	CCC1(CC)C(=O)N(C(=O)N[C@H](C)c2ccccc2)[C@H]1Oc1ccc(CCC(=O)O)cc1 [Table VI: 4-(CH2)2 COOH; Me; H]
4740	CCC1(CC)C(=O)N(C(=O)N[C@H](c2ccccc2)C(C)C)[C@H]1Oc1ccc(C(=O)O)cc1 [Table VI: 4-COOH; iPr(S); H]
74000	CCC1(CC)C(=O)N(C(=O)N[C@H](C)c2ccc(-c3ccccc3)cc2)[C@H]1Oc1ccc(C(=O)O)cc1 [Table VI: 4-COOH; Me; 4-Ph]
664000	C=CC[C@@H](NC(=O)N1C(=O)C(CC)(CC)[C@@H]1Oc1ccc(CC(=O)O)cc1)c1ccc(C)cc1 [Table VI: 4-CH2 COOH; allyl; 4-Me, (4S)-3,3-diethyl-1-[(R)-α-allyl-(4-methyl)benzyl-aminocarbonyl]-4-[(4-carboxymethyl)phenoxy]azetidin-2-one]
6980	CCC1(CC)C(=O)N(C(=O)N[C@H](COC)c2ccccc2)[C@H]1Oc1ccc(C(=O)O)cc1 [Table VI: 4-COOH; CH2 OMe(s); H]

same assay, conditions: pH 7.5, read-out: kobs/I, second order rate constant of inactivation of the enzyme

SMILES	kinact/KI [M⁻¹ s⁻¹]
CCC1C(=O)N(C(C)=O)C1OC(=O)CCC(=O)O (stereo not shown)	4510
CC[C@H]1C(=O)N(C(C)=O)[C@H]1OC(=O)c1ccccc1 (relative stereo) [Table I: H; C2 H5 (cis); OCOPh; COCH3]	28500
CC[C@H]1C(=O)N(C(C)=O)[C@@H]1OC(=O)c1ccccc1 (relative stereo) [Table I: H; C2 H5 (trans); OCOPh; COCH3]	81000
CCOC(=O)[C@H]1[C@@H](CC)C(=O)N1S(=O)(=O)c1ccc([N+](=O)[O-])cc1 (relative stereo) [4-Carboethoxy-3-ethyl-1-(p-nitrobenzenesulfonyl)-azetidin-2-one]	3920
CC[C@H]1C(=O)N(S(=O)(=O)c2ccc(C)cc2)[C@H]1C(=O)N1CCCC1 (relative stereo)	541
CCCC1(C)C(=O)N(C(=O)NCc2ccccc2)C1Oc1ccc(C(=O)O)cc1 (stereo not shown)	1900
CCOC(=O)[C@@H]1[C@@H](CC)C(=O)N1S(=O)(=O)c1ccc([N+](=O)[O-])cc1 (relative stereo) [4-Carboethoxy-3-ethyl-1-(p-nitrobenzenesulfonyl)-azetidin-2-one]	39300
